Test results from patent US11369615B2, “Agent for improving mitochondrial dysfunction, preventative or therapeutic agent for diseases or symptoms caused by mitochondrial dysfunction, and applications therefor” (JICHI MEDICAL UNIVERSITY, priority 2017, dated 2022).
Structures can show the parent of a compound that is named as a salt.

Legend:
[1] = system: ME54 cells derived from a patient with Leigh syndrome; assay: Tolerance to oxidative stress by BSO, ME54 cells; assay type: cell-based, human
Description: (§1) The oxidative stress test is a known pharmaceutical agent screening method, which was carried out under the conditions where cell death was induced by addition of L-buthionine-(S,R)-sulfoximine (BSO) (Arce P M et al., ACS Med Chem Lett., May 31, 2011, Vol. 2 (8), p. 608-13, doi: 10.1021/m1200095w. eCollection, Aug. 11, 2011, PubMed PMID: 24900356; PubMed Central PMCID: PMC4018135). BSO inhibits synthesis of glutathione serving as an antioxidant in the cells to deplete glutathione, raising the level of active oxygen within the cells. The procedure of the test is as follows. The cells to be used in the test were seeded in a 96-well plate for cell culture so as to satisfy a concentration of 5,000 cells/well and 80 μL medium/well and cultured in a CO2 incubator (37° C., 5% CO2) for 24 hours. Twenty four hours after the culture, BSO and each of the pharmaceutical agents (final concentration of 1 μM) of the drug library were together added to the cells within the wells. Forty eight hours after the addition, survival rates were determined. The survival rates were determined by measuring absorbance of formazan generated by use of cell count reagent SF (Nacalai Tesque, Inc.). As a positive control compound, idebenone (Non Patent Literature 1) approved as a therapeutic agent for Leber's hereditary optic neuritis in Europe, was used in the same concentration. […]

[2] = system: Promo 1 cells as normal cells; assay: Tolerance to oxidative stress by BSO, Promo1 normal cells; assay type: cell-based, human; conditions: Promo 1 normal cells; concentration range of 1 to 1000 μM
Description: as §1

[3] = system: KCMC10 cells derived from a patient with Leigh syndrome; assay: Oxidative stress test (BSO-induced cell death), KCMC10 cells; assay type: cell-based, human; conditions: BSO plus agent 1 μM, 48 hours after addition
Source text: (§2) In mitochondrial dysfunction, for example, ATP production is damaged and/or oxidative stress increases, with the result that apoptosis of cells is induced. Because of this, individuals having mitochondrial dysfunction are reported to be less tolerant to oxidative stress, compared to normal individuals (Shrader W D et al., Bioorg Med Chem Lett., Jun. 15, 2011, Vol. 21 (12), p. 3693-8, doi: 10.1016/j.bmc1.2011.04.085. electronically published on Apr. 24, 2011, PubMed PMID: 21600768). Then, oxidative stress was given to the skin fibroblasts of individual patients mentioned above to induce apoptosis. Under the conditions, compounds of the drug library were each administered to the cells. In this manner, a primary screening was carried out. Then, candidate pharmaceutical agents selected by the primary screening were subjected to a secondary screening, which is an in-vitro evaluation test such as a mitochondrial function evaluation test and a microarray expression analysis.
(§3) The oxidative stress test is a known pharmaceutical agent screening method, which was carried out under the conditions where cell death was induced by addition of L-buthionine-(S,R)-sulfoximine (BSO) (Arce P M et al., ACS Med Chem Lett., May 31, 2011, Vol. 2 (8), p. 608-13, doi: 10.1021/m1200095w. eCollection, Aug. 11, 2011, PubMed PMID: 24900356; PubMed Central PMCID: PMC4018135). BSO inhibits synthesis of glutathione serving as an antioxidant in the cells to deplete glutathione, raising the level of active oxygen within the cells. The procedure of the test is as follows. The cells to be used in the test were seeded in a 96-well plate for cell culture so as to satisfy a concentration of 5,000 cells/well and 80 μL medium/well and cultured in a CO2 incubator (37° C., 5% CO2) for 24 hours. Twenty four hours after the culture, BSO and each of the pharmaceutical agents (final concentration of 1 μM) of the drug library were together added to the cells within the wells. Forty eight hours after the addition, survival rates were determined. The survival rates were determined by measuring absorbance of formazan generated by use of cell count reagent SF (Nacalai Tesque, Inc.). As a positive control compound, idebenone (Non Patent Literature 1) approved as a therapeutic agent for Leber's hereditary optic neuritis in Europe, was used in the same concentration.
(§4) An oxidative stress test was carried out by using three fibroblast cell lines derived from patients with a mitochondrial disease and provided in 1-2. The pharmaceutical agent showing the survival rate equal to or more than that of idebenone, a positive control compound, was determined to be effective. The results of oxidative stress test of pharmaceutical agents of the drug library to KCMC10 cells are shown in FIG. 2; the results of oxidative stress test of pharmaceutical agents of the drug library to ME54 cells are shown in FIG. 3; and the results of oxidative stress test of pharmaceutical agents of the drug library to ME110 cells are shown in FIG. 4.

[4] = system: ME54 cells derived from a patient with Leigh syndrome; assay: Oxidative stress test (BSO-induced cell death), ME54 cells; assay type: cell-based, human; conditions: BSO plus agent 1 μM, 48 hours after addition
Source text: as §2, §3, §4

[5] = system: ME110 cells derived from a patient with MELAS; assay: Oxidative stress test (BSO-induced cell death), ME110 cells; assay type: cell-based, human; conditions: BSO plus agent 1 μM, 48 hours after addition
Source text: as §2, §3, §4

KCMC10 cells = assay: Evaluation test for mitochondrial function (extracellular flux analyzer, OCR), KCMC10 cells; assay type: cell-based, human; conditions: 10 to 100 nM, 24 hours after addition, vs DMSO control
Description: (§5) An evaluation test for mitochondrial function including ATP production (capacity) was carried out by using an extracellular flux analyzer (XFe96, Primetech Corporation). Mitochondrial function can be evaluated by continuously measuring the oxygen consumption rate (OCR) of mitochondria during ATP synthesis by use of the extracellular flux analyzer while adding ATP synthase inhibitors (oligomycin, rotenone and antimycin A) and an uncoupler (carbonyl cyanide-p-trifluoromethoxy phenylhydrazone (FCCP)). The evaluation items to be analyzed were basal respiratory volume, ATP production (capacity) and maximum respiratory volume, which are major indexes for evaluating mitochondrial function. The test procedure is as follows. The cells to be used in the test were seeded in a 96-well plate for cell culture so as to satisfy a concentration of 20,000 cells/well and 80 μL medium/well and cultured in a CO2 incubator (37° C., 5% CO2) for 24 hours. Twenty four hours after the culture, each of the pharmaceutical agents (final concentration of 1,000, 100 or 10 nM) of the drug library or the same amount of dimethyl sulfoxide (DMSO) as a control was added to the cells within wells. Twenty minutes after the addition of the pharmaceutical agent, oligomycin (final concentration of 2 μM) was added. Fifty minutes after the addition of the pharmaceutical agent, FCCP (final concentration of 2 μM) was added. Eighty minutes after the addition of the pharmaceutical agent, rotenone and antimycin A (final concentration of 0.5 μM) were sequentially added. The oxygen consumption rate (OCR) was measured with time. Based on the measurement results 24 hours after the addition of the pharmaceutical agents of the drug library, basal respiratory volume, ATP production (capacity) and maximum respiratory volume were evaluated.
(§6) Reference symbols of ** and ***, which represent p values relative to the control (DMSO) calculated by Student's t-test, show […], respectively.

ME110 cells = assay: Evaluation test for mitochondrial function (extracellular flux analyzer, OCR), ME110 cells; assay type: cell-based, human; conditions: 10 nM, 24 hours after addition, vs DMSO control
Description: as §5, §6

[6] = stated as known; cited from earlier work
[7] = system: KCMC10 cells derived from patients with Leigh syndrome; assay: Microarray expression analysis
Description: Expression analysis by a microarray was carried out by use of SurePrint G3 Human Gene Expression 8×60K v3 of Agilent Technologies, Inc. To KCMC10 cells derived from patients with Leigh syndrome, BSO was added, to prepare a group of patients provided with oxidative stress. To the cells, BSO and each of the candidate pharmaceutical agents selected from the drug library were both added to prepare another group. In this manner, two samples per each group were prepared. RNA was extracted from each of the samples and subjected to expression analysis by a microarray.
In the tables, the value of Log 2 ratio between the two groups of 1 means that expression ratios differ twice, the value of Log 2 ratio of 2 means 4 times difference and the value of Log 2 ratio of 3 means 8 times difference.

[8] = KCMC10, BSO/agent vs BSO, Inflammatory cytokine
[9] = KCMC10, BSO/agent vs BSO, JAK-STAT signal pathway
[10] = KCMC10, BSO/agent vs BSO, Lymphocytic tissue homing receptor
[11] = KCMC10, BSO/agent vs BSO, MARK signal pathway
[12] = KCMC10, BSO/agent vs BSO, Proinflammatory effect
[13] = KCMC10, BSO/agent vs BSO, Table 4
[14] = KCMC10, BSO/agent vs BSO, WNT signal pathway
[15] = KCMC10, BSO/agent vs BSO, mTOR signal pathway
[16] = KCMC10 cells, BSO/agent addition group vs BSO addition group

CCCCS(=N)(=O)CCC(N)C(=O)O [BSO, L-buthionine-(S,R)-sulfoximine]
concentration at which the survival rate significantly decreased [1]: ≥ 50 µM | difference in survival rates [2]: no significant difference

CN1CCc2cccc3c2[C@H]1Cc1ccc(O)c(O)c1-3 [Pharmaceutical agent No. 5, R(−)-Apomorphine hydrochloride hemihydrate]
survival rate equal to or more than that of idebenone (determined to be effective) [3]: effective | survival rate equal to or more than that of idebenone (determined to be effective) [4]: effective | survival rate equal to or more than that of idebenone (determined to be effective) [5]: effective | ATP production (capacity) (KCMC10 cells): significantly improved | basal respiratory volume (KCMC10 cells): significantly improved | maximum respiratory volume (KCMC10 cells): significantly improved | ATP production (capacity) (ME110 cells): significantly improved | basal respiratory volume (ME110 cells): significantly improved | maximum respiratory volume (ME110 cells): significantly improved | ability to pass through the blood-brain barrier [6]: known to be able to pass through the blood-brain barrier | Expression change (Increase/Decrease), CCL3 [7, 8]: Decrease | Expression change (Increase/Decrease), IL24 [7, 8]: Decrease | Expression change (Increase/Decrease), LIF [7, 8]: Decrease | Log 2 ratio between two groups, CCL3 [7, 8]: −2.98 | Log 2 ratio between two groups, IL24 [7, 8]: −1.77 | Log 2 ratio between two groups, LIF [7, 8]: −3.32 | Expression change (Increase/Decrease), BCL2A1 [7, 9]: Decrease | Expression change (Increase/Decrease), FHL1 [7, 9]: Increase | Expression change (Increase/Decrease), IL13RA2 [7, 9]: Decrease | Expression change (Increase/Decrease), SOCS2 [7, 9]: Increase | Expression change (Increase/Decrease), SOSC1 [7, 9]: Decrease | Log 2 ratio between two groups, BCL2A1 [7, 9]: −3.90 | Log 2 ratio between two groups, FHL1 [7, 9]: 1.01 | Log 2 ratio between two groups, IL13RA2 [7, 9]: −1.63 | Log 2 ratio between two groups, SOCS2 [7, 9]: 1.30 | Log 2 ratio between two groups, SOSC1 [7, 9]: −1.21 | Expression change (Increase/Decrease), CCL19 [7, 10]: Decrease | Log 2 ratio between two groups, CCL19 [7, 10]: −4.92 | Expression change (Increase/Decrease), DUSP6 [7, 11]: Decrease | Log 2 ratio between two groups, DUSP6 [7, 11]: −3.25 | Expression change (Increase/Decrease), IL12A [7, 12]: Decrease | Log 2 ratio between two groups, IL12A [7, 12]: −2.71 | Expression change (Increase/Decrease), CCL7 [7, 13]: Decrease | Expression change (Increase/Decrease), CSF3 [7, 13]: Decrease | Expression change (Increase/Decrease), CXCL2 [7, 13]: Decrease | Expression change (Increase/Decrease), CXCL3 [7, 13]: Decrease | Expression change (Increase/Decrease), CXCL8 [7, 13]: Decrease | Expression change (Increase/Decrease), MMP1 [7, 13]: Decrease | Log 2 ratio between two groups, CCL7 [7, 13]: −2.41 | Log 2 ratio between two groups, CSF3 [7, 13]: −5.58 | Log 2 ratio between two groups, CXCL2 [7, 13]: −2.68 | Log 2 ratio between two groups, CXCL3 [7, 13]: −3.72 | Log 2 ratio between two groups, CXCL8 [7, 13]: −4.34 | Log 2 ratio between two groups, MMP1 [7, 13]: −1.40 | Expression change (Increase/Decrease), DKK4 [7, 14]: Increase | Expression change (Increase/Decrease), FZD8 [7, 14]: Decrease | Expression change (Increase/Decrease), GBP [7, 14]: Increase | Expression change (Increase/Decrease), LEF1 [7, 14]: Decrease | Expression change (Increase/Decrease), SOST [7, 14]: Increase | Log 2 ratio between two groups, DKK4 [7, 14]: 1.66 | Log 2 ratio between two groups, FZD8 [7, 14]: −1.51 | Log 2 ratio between two groups, GBP [7, 14]: 2.11 | Log 2 ratio between two groups, LEF1 [7, 14]: −1.23 | Log 2 ratio between two groups, SOST [7, 14]: 1.70 | Expression change (Increase/Decrease), CAB39L [7, 15]: Decrease | Expression change (Increase/Decrease), DEPTOR [7, 15]: Increase | Expression change (Increase/Decrease), FECN [7, 15]: Decrease | Expression change (Increase/Decrease), PRR5 [7, 15]: Increase | Expression change (Increase/Decrease), RNF152 [7, 15]: Decrease | Expression change (Increase/Decrease), RPS6KA1 [7, 15]: Decrease | Expression change (Increase/Decrease), RRAGD [7, 15]: Decrease | Expression change (Increase/Decrease), SESN2 [7, 15]: Increase | Log 2 ratio between two groups, CAB39L [7, 15]: −1.37 | Log 2 ratio between two groups, DEPTOR [7, 15]: 2.11 | Log 2 ratio between two groups, FECN [7, 15]: −1.61 | Log 2 ratio between two groups, PRR5 [7, 15]: 4.19 | Log 2 ratio between two groups, RNF152 [7, 15]: −1.61 | Log 2 ratio between two groups, RPS6KA1 [7, 15]: −1.22 | Log 2 ratio between two groups, RRAGD [7, 15]: −2.27 | Log 2 ratio between two groups, SESN2 [7, 15]: 1.41 | number of genes showing a significant change in expression (expression ratio differs twice or more) [7, 16]: 475 types of genes | overall expression change of genes of the WNT-mTOR signal pathway (Table 3) [7, 16]: changed toward suppressing the WNT-mTOR signal pathway | overall expression change of genes related to cytokines or chemokines involved in inflammation or natural immunity (Table 4) [7, 16]: changed toward suppressing expression of the cytokines or chemokines
